Test results as given in BindingDB's records for doi:10.1111/cbdd.12822 (Wuhan University of Technology, 2016).

Legend:
[1] = target: T1, Amine oxidase [flavin-containing] A (Rattus norvegicus, UniProt P21396); assay: Monoamine Oxidase Assay; settings: pH 7.4; 38 °C
T1 sequence (P21396 whole entry): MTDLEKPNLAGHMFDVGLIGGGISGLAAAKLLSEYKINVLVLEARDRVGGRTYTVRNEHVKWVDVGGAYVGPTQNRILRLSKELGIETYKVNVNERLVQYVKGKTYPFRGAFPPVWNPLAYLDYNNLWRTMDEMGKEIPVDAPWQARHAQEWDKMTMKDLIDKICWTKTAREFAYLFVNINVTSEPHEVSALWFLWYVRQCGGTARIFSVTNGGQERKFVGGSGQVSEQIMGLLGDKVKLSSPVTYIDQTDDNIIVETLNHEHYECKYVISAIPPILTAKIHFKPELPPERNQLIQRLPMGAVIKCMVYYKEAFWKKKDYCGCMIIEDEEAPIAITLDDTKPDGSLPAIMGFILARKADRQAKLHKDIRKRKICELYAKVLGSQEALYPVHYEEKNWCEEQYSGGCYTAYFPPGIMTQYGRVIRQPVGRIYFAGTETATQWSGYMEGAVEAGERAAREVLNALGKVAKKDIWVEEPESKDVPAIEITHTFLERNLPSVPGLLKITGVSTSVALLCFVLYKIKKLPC

[2] = target: T2, Amine oxidase [flavin-containing] B (Rattus norvegicus, UniProt P19643); assay: Monoamine Oxidase Assay; settings: pH 7.4; 38 °C
T2 sequence (P19643 whole entry): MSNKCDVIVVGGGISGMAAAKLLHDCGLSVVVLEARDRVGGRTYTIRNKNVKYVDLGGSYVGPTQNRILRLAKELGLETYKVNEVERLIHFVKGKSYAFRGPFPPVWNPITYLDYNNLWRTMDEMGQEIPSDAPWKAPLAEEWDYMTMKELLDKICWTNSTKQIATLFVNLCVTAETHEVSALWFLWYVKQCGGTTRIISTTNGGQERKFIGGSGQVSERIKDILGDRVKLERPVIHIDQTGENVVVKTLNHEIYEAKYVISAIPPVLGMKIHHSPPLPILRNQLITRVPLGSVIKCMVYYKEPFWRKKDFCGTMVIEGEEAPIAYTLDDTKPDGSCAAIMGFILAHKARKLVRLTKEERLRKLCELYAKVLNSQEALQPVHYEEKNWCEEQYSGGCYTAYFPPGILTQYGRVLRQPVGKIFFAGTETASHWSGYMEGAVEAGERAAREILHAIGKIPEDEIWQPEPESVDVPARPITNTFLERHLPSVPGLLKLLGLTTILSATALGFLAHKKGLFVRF

[3] = target: Carboxylic ester hydrolase (Equus caballus, UniProt Q9N1N9); assay: AChE and BuChE Inhibition Assay; settings: pH 8; 25 °C
Carboxylic ester hydrolase, sequence (Q9N1N9 whole entry): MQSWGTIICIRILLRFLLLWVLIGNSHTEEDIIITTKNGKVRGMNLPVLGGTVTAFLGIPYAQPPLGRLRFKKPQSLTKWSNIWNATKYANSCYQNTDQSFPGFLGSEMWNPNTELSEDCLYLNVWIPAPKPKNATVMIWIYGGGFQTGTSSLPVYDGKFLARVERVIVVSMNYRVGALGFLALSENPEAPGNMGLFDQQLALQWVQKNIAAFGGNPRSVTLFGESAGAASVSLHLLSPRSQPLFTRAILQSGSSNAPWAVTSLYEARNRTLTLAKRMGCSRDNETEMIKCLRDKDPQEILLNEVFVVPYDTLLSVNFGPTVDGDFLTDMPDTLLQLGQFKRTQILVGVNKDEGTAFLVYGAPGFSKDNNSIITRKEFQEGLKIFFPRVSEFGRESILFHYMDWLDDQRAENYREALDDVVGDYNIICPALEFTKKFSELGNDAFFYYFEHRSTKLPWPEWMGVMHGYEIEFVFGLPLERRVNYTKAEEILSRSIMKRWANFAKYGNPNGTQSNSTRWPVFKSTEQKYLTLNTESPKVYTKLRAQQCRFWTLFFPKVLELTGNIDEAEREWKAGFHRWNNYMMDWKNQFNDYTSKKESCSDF
Experimental: (§1) This spectrophotometric assay is based on the reaction of 5,5-dithio-bis(2-nitrobenzoic)acid (DTNB) with thiocholine to yield a colored product. Shimadzu (Kyoto, Japan) UV-1700 UV-vis spectrophotometer was used to record the measurements. The enzyme solutions were prepared at 2.5 units/mL concentrationin 1% gelatin solution. BChE/AChE and compound solutions (50 μL each) in 2% DMSO at 10^-1-10^-6 mM concentration were added to 3 mL phosphate buffer (pH 8 &plusnm; 0.1)followed by incubation for 5 min at 25 °C. The reaction was commenced by the addition of acetylthiocholine iodide (ATC) (10 μL) and DTNB (50 μL) to the enzyme-inhibitor mixture. […] The blank reading contained 10 μL substrate, 50 μL DTNB, 50 μL (2%) DMSO, and 3 mL buffer. The reaction was performed in triplicate.

Acetylcholinesterase = Acetylcholinesterase (Electrophorus electricus, UniProt O42275); assay: AChE and BuChE Inhibition Assay; settings: pH 8; 25 °C
Acetylcholinesterase, sequence (O42275 whole entry): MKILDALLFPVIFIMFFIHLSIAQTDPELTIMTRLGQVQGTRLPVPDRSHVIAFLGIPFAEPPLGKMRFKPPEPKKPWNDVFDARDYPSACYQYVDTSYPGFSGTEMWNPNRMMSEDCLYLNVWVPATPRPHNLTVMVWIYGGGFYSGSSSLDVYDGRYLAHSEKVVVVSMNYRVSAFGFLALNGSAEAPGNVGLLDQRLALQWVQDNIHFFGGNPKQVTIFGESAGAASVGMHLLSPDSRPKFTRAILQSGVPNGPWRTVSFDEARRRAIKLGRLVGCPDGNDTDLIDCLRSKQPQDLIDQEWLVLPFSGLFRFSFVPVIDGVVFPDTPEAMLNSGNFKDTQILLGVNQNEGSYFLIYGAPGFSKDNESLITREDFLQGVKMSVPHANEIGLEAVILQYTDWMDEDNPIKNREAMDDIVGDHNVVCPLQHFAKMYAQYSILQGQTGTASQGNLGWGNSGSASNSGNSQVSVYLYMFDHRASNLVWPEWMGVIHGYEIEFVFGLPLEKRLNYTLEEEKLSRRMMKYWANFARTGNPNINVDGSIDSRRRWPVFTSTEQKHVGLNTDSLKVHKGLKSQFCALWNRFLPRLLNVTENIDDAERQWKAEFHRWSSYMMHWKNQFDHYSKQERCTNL
Experimental: as §1

| SMILES | IC50 [1] | IC50 [2] | IC50 [3] | IC50 (Acetylcholinesterase) |
| --- | --- | --- | --- | --- |
| COc1cccc(/C=C2\CCc3ccc(F)cc3C2=O)c1Cl [(2E)-2-[(2-chloro-3-methoxyphenyl)methylidene]-7-fluoro-1,2,3,4-tetrahydronaphthalen-1-one (3ab)] | 19.6 µM | 6.9 µM | > 100 µM | > 100 µM |
| COc1cccc(/C=C2\CCc3ccc([N+](=O)[O-])cc3C2=O)c1Cl [(2E)-2-[(2-chloro-3-methoxyphenyl)methylidene]-7-nitro-1,2,3,4-tetrahydronaphthalen-1-one (3ae)] | 7.23 µM | 6.8 µM | 27.9 µM | 9.14 µM |
| COc1cc(/C=C2\CCc3ccc(Br)cc3C2=O)c(Br)c(OC)c1OC [(2E)-7-bromo-2-[(2-bromo-3,4,5-trimethoxyphenyl)methylidene]-1,2,3,4-tetrahydronaphthalen-1-one (3aa)] | > 100 µM | 44.6 µM | > 100 µM | > 100 µM |
| COc1ccc(/C=C2\CCc3ccc(Br)cc3C2=O)c(Cl)c1OC [(2E)-7-bromo-2-[(2-chloro-3,4-dimethoxyphenyl)methylidene]-1,2,3,4-tetrahydronaphthalen-1-one (3z)] | > 100 µM | 56.4 µM | > 100 µM | > 100 µM |
| COc1cccc(/C=C2\CCc3ccc(Br)cc3C2=O)c1Cl [(2E)-7-bromo-2-[(2-chloro-3-methoxyphenyl)methylidene]-1,2,3,4-tetrahydronaphthalen-1-one (3y)] | > 100 µM | 67.9 µM | > 100 µM | > 100 µM |
| COc1ccc(/C=C2\CCc3ccc(Cl)cc3C2=O)c(Cl)c1OC [(2E)-7-chloro-2-[(2-chloro-3,4-dimethoxyphenyl)methylidene]-1,2,3,4-tetrahydronaphthalen-1-one (3k)] | > 100 µM | > 100 µM | 56.7 µM | > 100 µM |
| COc1cccc(/C=C2\CCc3ccc(Cl)cc3C2=O)c1Cl [(2E)-7-chloro-2-[(2-chloro-3-methoxyphenyl)methylidene]-1,2,3,4-tetrahydronaphthalen-1-one (3j)] | > 100 µM | > 100 µM | > 100 µM | > 100 µM |
